The target of this assay is MMP-13CD (catalytic domain of collagenase-3) (Homo sapiens, UniProt P45452). Briefly: Thiopeptolide substrate hydrolysis inhibition assay, MMP-13CD. The format is biochemical. The settings on record: Table I; thiopeptolide substrate, HEPES pH 7.0, 22° C.; read-out: MMP-13CD IC50. From the text: Thiopeptolide substrates show virtually no decomposition or hydrolysis at or below neutral pH in the absence of a matrix metalloproteinase enzyme.

Where only a bound is given, the exact number is not on record here.

Regarding `COc1cccc(CNC(=O)c2cc3c(=O)n(CC4CCCCC4)c(=O)n(C)c3s2)c1` [Example 69, 3-Cylcohexylmethyl-1-methyl-2,4-dioxo-1,2,3,4-tetrahydro-thieno[2,3-d]pyrimidine-6-carboxylic acid-3methoxy-benzylamide], the IC50 (as a rule, the concentration at which inhibition is half-maximal) stood at 0.057 µM. Consider `COc1ccc(CNC(=O)c2cc3c(=O)n(CC4CCCCC4)c(=O)n(C)c3s2)cc1` [Example 70, 3-cylcohexylmethyl-1-methyl-2,4-dioxo-1,2,3,4-tetrahydro-thieno[2,3-d]pyrimidine-6-carboxylic acid-4methoxy-benzylamide], for which the IC50 stood at 0.119 µM. Consider `O=C(OCc1ccoc1)c1cc2c(=O)n(Cc3ccccc3)c(=O)[nH]c2s1` [Example 71, 3-Benzyl-2,4-dioxo-1,2,3,4-tetrahydro-thieno[2,3-d]pyrimidine-6-carboxylic acid furan-3-ylmethyl ester], for which the IC50 came out at 13 µM. The same measure for `Cn1c(=O)n(Cc2ccccc2)c(=O)c2cc(C(=O)OCc3c(F)c(F)c(F)c(F)c3F)sc21` [Example 72, 3-Benzyl-1-methyl-2,4-dioxo-1,2,3,4-tetrahydro-thieno[2,3-d]pyrimidine-6-carboxylic acid pentafluorophenylmethyl ester]: above 100 µM. With `O=C(OCc1ccccc1)c1cc2c(=O)n(Cc3ccccc3)c(=O)n(CC3CC3)c2s1` [Example 74, 3-Benzyl-1-cyclopropylmethyl-2,4-dioxo-1,2,3,4-tetrahydro-thieno[2,3-d]pyrimidine-6-carboxylic acid benzyl ester] the figure was 71.5 µM; with `Cn1c(=O)n(Cc2ccccc2)c(=O)c2cc(C(=O)NCc3ccncc3)sc21` [Example 75, 3-Benzyl-1-methyl-2,4-dioxo-1,2,3,4-tetrahydro-thieno[2,3-d]pyrimidine-6-carboxylic acid (pyridin-4-ylmethyl)-amide], 0.345 µM; with `Cn1c(=O)n(Cc2ccc(C(=O)O)cc2)c(=O)c2cc(C(=O)NCc3cccc(OC(F)F)c3)sc21` [Example 77, 4-[6-(3-Difluoromethoxy-benzylcarbamoyl)-1-methyl-2,4-dioxo-1,4-dihydro-2H-thieno[2,3-d]pyrimidin-3-ylmethyl]-benzoic acid], 0.00655 µM. With `Cn1c(=O)n(Cc2ccc(C(=O)OC(C)(C)C)cc2)c(=O)c2cc(C(=O)NCc3cccc(OC(F)F)c3)sc21` [Example 78, 4-[6-(3-Difluoromethoxy-benzylcarbamoyl)-1-methyl-2,4-dioxo-1,4-dihydro-2H-thieno[2,3-d]pyrimidin-3-ylmethyl]-benzoic acid tert-butyl ester] the figure was 0.9 µM; with `COc1cccc(CNC(=O)c2cc3c(=O)n(Cc4ccc(C(=O)O)cc4)c(=O)n(C)c3s2)c1` [Example 79, 4-[6-(3-Methoxy-benzylcarbamoyl)-1-methyl-2,4-dioxo-1,4-dihydro-2H-thieno[2,3-d]pyrimidin-3-ylmethyl]-benzoic acid], 0.00205 µM. Turning to `Cn1c(=O)n(Cc2ccc(C(=O)OC(C)(C)C)cc2)c(=O)c2cc(C(=O)NCc3ccc(S(C)(=O)=O)cc3)sc21` [Example 80, 4-[6-(4-Methanesulfonyl-benzylcarbamoyl)-1-methyl-2,4-dioxo-1,4-dihydro-2H-thieno[2,3-d]pyrimidin-3-ylmethyl]-benzoic acid tert-butyl ester], the 50% inhibitory concentration (IC50) came to 25 µM. In the case of `Cn1c(=O)n(Cc2ccc(C(=O)O)cc2)c(=O)c2cc(C(=O)NCc3ccc(S(C)(=O)=O)cc3)sc21` [Example 81, 4-[6-(4-Methanesulfonyl-benzylcarbamoyl)-1-methyl-2,4-dioxo-1,4-dihydro-2H-thieno[2,3-d]pyrimidin-3-ylmethyl]-benzoic acid], the IC50 is 3.9 µM. As for `Cn1c(=O)n(Cc2ccc(C(=O)O)cc2)c(=O)c2cc(C(=O)NCCc3ccncc3)sc21` [Example 82, 4-[1-Methyl-2,4-dioxo-6-(2-pyridin-4-yl-ethylcarbamoyl)-1,4-dihydro-2H-thieno[2,3-d]pyrimidin-3-ylmethyl]-benzoic acid], the IC50 was found to be 3.7 µM.
